We go through 24 molecules from patent US12221459B2, “Cancer treatment with (2,2-bishydroxymethyl) methylenecyclopropane nucleotides” (MEDIVIR AB, priority 2018, dated 2025).

Read-outs that look alike come from different tables or passages of the source.

Series [1] concerns THP-1 (human acute monocytic leukemia). The experiment in a line: Leukemia cell line activity assay (Cell Counting Kit-8, 5 days), THP-1. On the technique in general: Tetrazolium dyes change colour on reduction, which living cells bring about.
Protocol: (§1) Compounds of the invention were evaluated for activity against the leukemia cell lines THP-1, EOL-1 and MV4-11, using the following assay:
(§2) Test compounds were made up to 10 mM stock solution in DMSO
(§3) Leukemia cells (THP-1, EOL-1 and MV4-11) were grown in a cell culture flask 75 cm^2 with approximately 100 ml complete cell medium. The cells were counted using a Scepter-hand held automated cell counter, using 60 μm sensors (Millipore) and suspended in complete cell medium to 2×10^5 cells. 100 μl of the cell suspension were seeded to all wells (2×10^4 cells/well).
(§4) The compounds were tested in twelve concentrations, 10-fold serial dilutions, 50 μM-5×10^−10 μM.
(§5) 100 μl from a compound dilution plate were transferred to the cell assay plate=200 μl/well total volume and incubated for 5 days, at 37° C., 5% CO2 incubator.
(§6) After 5 days, 10l of KIT-8 was added and the culture was incubated for 3-4 hours, at 37° C., 5% CO2 incubator.
(§7) Plate were read in the spectrophotometer at wavelength 450 nm with a reference filter of 620 nm.
(§8) CC50 values are calculated by plotting the degree of inhibition (compared to the vehicle ctrl) against the logarithm of the compound concentration. Result values in the dilution series are fitted to a 4-parameter sigmoidal dose-response curve described by the expression: F(x)=D+(A−D)/(1+(x/C)^B) where: • A=Minimum • B=Slope. • C=Inflection point. The inflection point is defined as the point on the curve where the curvature changes direction or signs. • D=Maximum • F=fraction inhibition
The test system of series [2] is MV4-11 cells, human B-myelomonocytic leukemia. The experiment in a line: Leukemia cell line activity assay (Cell Counting Kit-8, 5 days), MV4-11.
Protocol: as §1, §2, §3, §4, §5, §6, §7, §8
The subject of another series is EOL-1 (human). Briefly: Leukemia cell line activity assay (Cell Counting Kit-8, 5 days), EOL-1. The following applies: read-out: EOL.1 CC50.
[3] abbreviates: Homo sapiens, THP-1, 120 h, read-out: THP-1 CC50, THP-1 cells, 5 days incubation.
The mark [4] stands for this setting: Homo sapiens, MV4-11, 120 h, read-out: MV4-11 CC50, MV4-11 cells, 5 days incubation.
Where [5] appears, read: read-out: THP-1 CC50, THP-1 cells, 5 days incubation.
Setting [6] is: read-out: MV4-11 CC50, MV4-11 cells, 5 days incubation.

Broadly, the CC50 is the concentration at which the toxic effect on the cells reaches its halfway point.

Protocol for EOL-1 (human): as §1, §2, §3, §4, §5, §6, §7, §8

Consider `CCCC(CCC)COC(=O)[C@H](C)N[P@](=O)(OCC1(COC(=O)C(C)C)C/C1=C/n1ccc(N)nc1=O)Oc1ccccc1` (single isomer, unassigned) [Example 16-1], for which the CC50 in series [1] (setting [3]) was found to be 350 nM; in series [2] (setting [4]) it was 190 nM.
On the same counts, the results for `COC(=O)[C@H](CC(C)C)N[P@](=O)(OCC1(COC(=O)C(C)C)C/C1=C/n1cnc2c(=O)[nH]c(N)nc21)Oc1ccccc1` (single isomer, unassigned) [Example 18-2] are 1800 nM and 800 nM.
In the case of `CCC(CC)COC(=O)[C@H](Cc1ccccc1)N[P@](=O)(OCC1(COC(=O)C(C)C)C/C1=C/n1cnc2c(=O)[nH]c(N)nc21)Oc1ccccc1` (single isomer, unassigned) [Example 20-2], the CC50 in the series with EOL-1 (human) (Homo sapiens, EOL1, 120 h) was 3600 nM; in series [1] (setting [3]), 900 nM; in series [2] (setting [4]) it was 380 nM.
With `CCC(CC)COC(=O)[C@H](CC(C)C)N[P@](=O)(OCC1(COC(=O)C(C)C)C/C1=C/n1cnc2c(=O)[nH]c(N)nc21)Oc1ccccc1` (single isomer, unassigned) [Example 21-2], the CC50 amounted to 390 nM in series [1] (setting [3]) and 510 nM in series [2] (setting [4]).
On the same counts, the results for `CCC[C@H](C)OC(=O)[C@H](C)N[P@](=O)(OCC1(COC(=O)C(C)C)C/C1=C/n1ccc(N)nc1=O)Oc1ccccc1` (single isomer, unassigned) [Example 28-2] are 880 nM and 1000 nM.
On the same counts, the results for `CCCC(=O)OCC1(CO[P@@](=O)(N[C@@H](C)C(=O)O[C@@H](C)CCC)Oc2ccccc2)C/C1=C/n1ccc(N)nc1=O` (single isomer, unassigned) [Example 29-1] are 710 nM and 1200 nM.
Take `CCCC(=O)OCC1(CO[P@@](=O)(N[C@@H](C)C(=O)OCC(CCC)CCC)Oc2ccccc2)C/C1=C/n1ccc(N)nc1=O` (single isomer, unassigned) [Example 32-1]: the 50% cytotoxic concentration (CC50) in the series on EOL-1 (human) (Homo sapiens, EOL1, 120 h) was 59 nM; in series [1] (setting [5]), 190 nM; in series [2] (setting [6]), 180 nM.
In the case of `CCC(CC)COC(=O)C[C@H](N[P@](=O)(OCC1(COC(=O)C(C)C)C/C1=C/n1cnc2c(=O)[nH]c(N)nc21)Oc1ccccc1)C(=O)OCC(CC)CC` (single isomer, unassigned) [Example 35-1], the CC50 in series [1] (setting [3]) amounted to 290 nM; in series [2] (setting [4]) it was 180 nM.
The like results for `CCCC(CCC)COC(=O)[C@H](C)N[P@](=O)(OCC1(COC(=O)C(C)C)C/C1=C/n1cc(F)c(N)nc1=O)Oc1ccccc1` (single isomer, unassigned) [Example 39-2] were, in that order, 600 nM and 2600 nM.
In the case of `CCCC(=O)OCC1(CO[P@@](=O)(N[C@@H](C)C(=O)OCC(CCC)CCC)Oc2ccccc2)C/C1=C/n1ccc(N)nc1=O` (single isomer, unassigned) [Example 45-1], the CC50 with EOL-1 (human) (EOL-1 cells, 5 days incubation) amounted to 59 nM; in series [1] (setting [5]) it was 190 nM; in series [2] (setting [6]), 180 nM.
As to `CCCC(=O)OCC1(CO[P@@](=O)(N[C@@H](C)C(=O)OCC(CCC)CCC)Oc2ccccc2)C/C1=C/n1ccc(N)nc1=O` (single isomer, unassigned) [Example 45-2], the values for the CC50 in series [1] (setting [5]) and in series [2] (setting [6]) were 2000 nM and 2200 nM, respectively.
With `Nc1nc2c(ncn2/C=C2/CC2(CO)CO)c(=O)[nH]1` [Cyclopropavir, 2,2-bis-(hydroxymethyl) cyclopropylidene methyl guanine, reference compound], the CC50 with EOL-1 (human) (Homo sapiens, EOL1, 120 h) was determined as 11000 nM; in series [1] (Homo sapiens, THP-1, 120 h, read-out: THP-1 CC50), 5100 nM; in series [2] (Homo sapiens, MV4-11, 120 h, read-out: MV4-11 CC50), 11000 nM.
Regarding `CCCC(CCC)COC(=O)[C@H](C)N[P@](=O)(OC[C@@]1(COC(=O)[C@@H](N)C(C)C)C/C1=C/n1cnc2c(=O)[nH]c(N)nc21)Oc1ccccc1` [Example 1f-1, (S)-((S,Z)-2-((2-Amino-6-oxo-1H-purin-9(6H)-yl)methylene)-1-((((S)-(((S)-1-oxo-1-((2-propylpentyl)oxy)propan-2-yl)amino)(phenoxy)phosphoryl)oxy)methyl)cyclopropyl)methyl 2-amino-3-methylbutanoate], the CC50 with EOL-1 (human) (Homo sapiens, EOL1, 120 h) is 120 nM; in series [1] (setting [3]) it was 670 nM; in series [2] (setting [4]) it was 460 nM.
The like results for `CCC[C@H](C)OC(=O)[C@H](C)N[P@](=O)(OC[C@@]1(COC(=O)C(C)C)C/C1=C/n1cnc2c(=O)[nH]c(N)nc21)Oc1ccccc1` [Example 6-2, ((S,Z)-2-((2-amino-6-oxo-1H-purin-9(6H)-yl)methylene)-1-((((S)-(((S)-1-oxo-1-((S)-pentan-2-yloxy)propan-2-yl)amino)(phenoxy)phosphoryl)oxy)methyl)cyclopropyl)methyl isobutyrate] were, in that order, 190 nM, 740 nM and 430 nM.
In the case of `CCCC(=O)OC[C@]1(CO[P@@](=O)(N[C@@H](C)C(=O)OCC(CCC)CCC)Oc2ccccc2)C/C1=C/n1cnc2c(=O)[nH]c(N)nc21` [Example 11-1, ((S,Z)-2-((2-Amino-6-oxo-1H-purin-9(6H)-yl)methylene)-1-((((S)-(((S)-1-oxo-1-((2-propylpentyl)oxy)propan-2-yl)amino)(phenoxy)phosphoryl)oxy)methyl)cyclopropyl)methyl butyrate], the CC50 is 140 nM in the series on EOL-1 (human) (Homo sapiens, EOL1, 120 h); 190 nM in series [1] (setting [3]); 71 nM in series [2] (setting [4]).
Turning to `CCCC(=O)OC[C@]1(CO[P@@](=O)(N[C@@H](C)C(=O)O[C@@H](C)CCC)Oc2ccc(Br)cc2)C/C1=C/n1cnc2c(=O)[nH]c(N)nc21` [Example 12-1, ((S,Z)-2-((2-Amino-6-oxo-1H-purin-9(6H)-yl)methylene)-1-((((S)-(4-bromophenoxy)(((S)-1-oxo-1-((S)-pentan-2-yloxy)propan-2-yl)amino)phosphoryl)oxy)methyl)cyclopropyl)methyl butyrate], the CC50 in the series with EOL-1 (human) (Homo sapiens, EOL1, 120 h) came to 170 nM; in series [1] (setting [3]), 290 nM.
In the case of `CCCC(CCC)COC(=O)[C@H](C)N[P@](=O)(OC[C@@]1(COC(C)=O)C/C1=C/n1cnc2c(=O)[nH]c(N)nc21)Oc1ccccc1` [Example 13-1, (S)-2-propylpentyl 2-(((S)-(((S,Z)-1-(acetoxymethyl)-2-((2-amino-6-oxo-1H-purin-9(6H)-yl)methylene)cyclopropyl)methoxy)(phenoxy)phosphoryl)amino)propanoate], the half-maximal cytotoxic concentration (CC50) in series [1] (setting [3]) was 870 nM; in series [2] (setting [4]), 1100 nM.
Turning to `CCC[C@H](C)OC(=O)[C@H](C)N[P@](=O)(OC[C@@]1(COC(=O)[C@@H](N)C(C)C)C/C1=C/n1cnc2c(=O)[nH]c(N)nc21)Oc1ccccc1` [Example 15-1, (S)-((S,Z)-2-((2-amino-6-oxo-1H-purin-9(6H)-yl)methylene)-1-((((S)-(((S)-1-oxo-1-((S)-pentan-2-yloxy)propan-2-yl)amino)(phenoxy)phosphoryl)oxy)methyl)cyclopropyl)methyl 2-amino-3-methylbutanoate], the cytotoxic concentration (CC50) in series [1] (setting [3]) was 1000 nM.
On to `CCC(CC)COC(=O)[C@H](Cc1ccccc1)N[P@](=O)(OCC1(COC(=O)[C@@H](N)C(C)C)C/C1=C/n1cnc2c(=O)[nH]c(N)nc21)Oc1ccccc1` (stereo partly drawn) [Example 23, ((Z)-2-((2-amino-6-oxo-1,6-dihydro-9H-purin-9-yl)methylene)-1-((((S)-(((S)-1-(2-ethylbutoxy)-1-oxo-3-phenylpropan-2-yl)amino)(phenoxy)phosphoryl)oxy)methyl)cyclopropyl)methyl L-valinate], for which the figures for the half-maximal cytotoxic concentration (CC50) in series [1] (setting [3]) and in series [2] (setting [4]) were 2400 nM and 850 nM, respectively.
On the same counts, the results for `CCCCCCCCCCCCCCCCCC(=O)OCC1(CO[P@@](=O)(N[C@@H](C)C(=O)O[C@@H](C)CCC)Oc2ccccc2)C/C1=C/n1cnc2c(=O)[nH]c(N)nc21` (stereo partly drawn) [Example 24, ((Z)-2-((2-amino-6-oxo-1,6-dihydro-9H-purin-9-yl)methylene)-1-((((S)-(((S)-1-oxo-1-(((S)-pentan-2-yl)oxy)propan-2-yl)amino)(phenoxy)phosphoryl)oxy)methyl)cyclopropyl)methyl stearate] are 3800 nM and 2100 nM.
In the case of `CCC(CC)COC(=O)[C@H](Cc1ccccc1)N[P@](=O)(OCC1(COC(=O)C(C)C)C/C1=C/n1ccc(N)nc1=O)Oc1ccccc1` (stereo partly drawn) [Example 25-2, 2-ethylbutyl((S)-(((Z)-2-((4-amino-2-oxopyrimidin-1 (2H)-yl)methylene)-1-((isobutyryloxy)methyl)cyclopropyl)methoxy)(phenoxy)phosphoryl)-L-phenylalaninate], the CC50 was 100 nM in the series with EOL-1 (human) (EOL-1 cells, 5 days incubation); 410 nM in series [1] (setting [5]); 86 nM in series [2] (setting [6]).
As for `CCCC(=O)OCC1(CO[P@@](=O)(N[C@@H](C)C(=O)O[C@@H](C)CCC)Oc2ccccc2)C/C1=C/n1cnc2c(=O)[nH]c(N)nc21` (stereo partly drawn) [Example 30-1, ((Z)-2-((2-amino-6-oxo-1,6-dihydro-9H-purin-9-yl)methylene)-1-((((S)-(((S)-1-oxo-1-(((S)-pentan-2-yl)ox)propan-2-yl)amino)(phenoxy)phosphoryl)oxy)methyl)cyclopropyl)methyl butyrate], the CC50 was 940 nM in the series with EOL-1 (human) (Homo sapiens, EOL1, 120 h); 460 nM in series [1] (setting [3]); 430 nM in series [2] (setting [4]).
Take `CCCC(=O)OCC1(CO[P@@](=O)(N[C@@H](C)C(=O)OCC(CCC)CCC)Oc2ccccc2)C/C1=C/n1cc(F)c(N)nc1=O` (stereo partly drawn) [Example 40, ((Z)-2-((4-amino-5-fluoro-2-oxopyrimidin-1(2H)-yl)methylene)-1-((((S)-(((S)-1-oxo-1-((2-propylpentyl)oxy)propan-2-yl)amino)(phenoxy)phosphoryl)oxy)methyl)cyclopropyl)methyl butyrate]: the CC50 in series [2] (setting [4]) worked out at 3100 nM.
For the molecule “(S)-(S)-Pentan-2-yl 2-(((S)-(((S,Z)-1-(acetoxymethyl)-2-((2-amino-6-oxo-1H-purin-9(6H)-yl)methylene)cyclopropyl)methoxy)(4-bromophenoxy)phosphoryl)amino) [Example 8-1]”, the cytotoxic concentration (CC50) was found to be 340 nM in the series with EOL-1 (human) (EOL-1 cells, 5 days incubation) and 260 nM in series [1] (setting [5]).
